Test [1] addresses VEGFR2 (KDR) kinase, purified cytoplasmic domain KDR protein (Homo sapiens (Human), UniProt P35968). Description: VEGFR2 Kinase Assay. In kind it is biochemical. As to conditions: 2.7 μM ATP, poly-Glu-Tyr (4:1) substrate, 15 minute incubation at 30° C. The protocol: (§1) Biochemical KDR kinase assays were performed in 96 well microtiter plates that were coated overnight with 75 μg/well of poly-Glu-Tyr (4:1) in 10 mM Phosphate Buffered Saline (PBS), pH 7.4. The coated plates were washed with 2 mls per well PBS+0.05% Tween-20 (PBS-T), blocked by incubation with PBS containing 1% BSA, then washed with 2 mls per well PBS-T prior to starting the reaction. Reactions were carried out in 100 μL reaction volumes containing 2.7 μM ATP in kinase buffer (50 mM Hepes buffer pH 7.4, 20 mM MgCl2, 0.1 mM MnCl2 and 0.2 mM Na3VO4). Test compounds were reconstituted in 100% DMSO and added to the reaction to give a final DMSO concentration of 5%. Reactions were initiated by the addition 20 ul per well of kinase buffer containing 200-300 ng purified cytoplasmic domain KDR protein (BPS Bioscience, San Diego, Calif.). Following a 15 minute incubation at 30° C., the reactions were washed 2 mls per well PBS-T. 100 μl of a monoclonal anti-phosphotyrosine antibody-peroxidase conjugate diluted 1:10,000 in PBS-T was added to the wells for 30 minutes. Following a 2 mls per well wash with PBS-Tween-20, 100 μl of O-Phenylenediamine Dihydrochloride in phosphate-citrate buffer, containing urea hydrogen peroxide, was added to the wells for 7-10 minutes as a colorimetric substrate for the peroxidase. The reaction was terminated by the addition of 100 μl of 2.5N H2SO4 to each well and read using a microplate ELISA reader set at 492 nm. IC50 values for compound inhibition were calculated directly from graphs of optical density (arbitrary units) versus compound concentration following subtraction of blank values.

Test [2] deals with PDGFRβ kinase, purified cytoplasmic domain PDGFR-b protein (Homo sapiens (Human), UniProt P09619). Put plainly: PDGFRβ Kinase Assay. In kind it is biochemical. As to conditions: 36 μM ATP, poly-Glu-Tyr (4:1) substrate, 60 minute incubation at 30° C. As to the method: as §1, with “Biochemical PDGFRβ” for “Biochemical KDR”, “75 μg” for “75 μg/well”, “containing 36” for “containing 2.7”, “domain PDGFR-b” for “domain KDR”, “protein (Millipore).” for “protein (BPS Bioscience, San Diego, Calif.).”, “a 60” for “a 15”
PDGFRβ kinase, purified cytoplasmic domain PDGFR-b protein, sequence (P09619 554-1106): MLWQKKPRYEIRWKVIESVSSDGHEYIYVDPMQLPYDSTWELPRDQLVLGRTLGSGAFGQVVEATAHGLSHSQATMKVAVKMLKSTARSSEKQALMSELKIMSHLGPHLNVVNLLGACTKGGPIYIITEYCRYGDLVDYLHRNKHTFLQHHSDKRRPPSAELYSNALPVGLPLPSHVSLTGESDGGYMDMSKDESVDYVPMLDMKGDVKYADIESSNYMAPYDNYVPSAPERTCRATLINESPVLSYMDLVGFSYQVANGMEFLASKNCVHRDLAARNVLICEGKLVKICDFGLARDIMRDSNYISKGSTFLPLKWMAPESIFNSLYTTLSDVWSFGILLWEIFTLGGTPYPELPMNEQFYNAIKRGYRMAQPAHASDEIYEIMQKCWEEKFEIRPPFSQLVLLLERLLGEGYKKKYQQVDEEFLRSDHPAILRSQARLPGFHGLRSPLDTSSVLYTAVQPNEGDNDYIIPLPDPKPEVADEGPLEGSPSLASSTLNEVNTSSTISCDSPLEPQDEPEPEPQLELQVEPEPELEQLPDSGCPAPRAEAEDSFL

As a reminder, the IC50 is the concentration that gives 50% inhibition. Read a high IC50 as weaker potency.

Each structure is given as a SMILES string.

VEGFR2 (KDR) kinase, purified cytoplasmic domain KDR protein, sequence (P35968 786-1356, species assumed): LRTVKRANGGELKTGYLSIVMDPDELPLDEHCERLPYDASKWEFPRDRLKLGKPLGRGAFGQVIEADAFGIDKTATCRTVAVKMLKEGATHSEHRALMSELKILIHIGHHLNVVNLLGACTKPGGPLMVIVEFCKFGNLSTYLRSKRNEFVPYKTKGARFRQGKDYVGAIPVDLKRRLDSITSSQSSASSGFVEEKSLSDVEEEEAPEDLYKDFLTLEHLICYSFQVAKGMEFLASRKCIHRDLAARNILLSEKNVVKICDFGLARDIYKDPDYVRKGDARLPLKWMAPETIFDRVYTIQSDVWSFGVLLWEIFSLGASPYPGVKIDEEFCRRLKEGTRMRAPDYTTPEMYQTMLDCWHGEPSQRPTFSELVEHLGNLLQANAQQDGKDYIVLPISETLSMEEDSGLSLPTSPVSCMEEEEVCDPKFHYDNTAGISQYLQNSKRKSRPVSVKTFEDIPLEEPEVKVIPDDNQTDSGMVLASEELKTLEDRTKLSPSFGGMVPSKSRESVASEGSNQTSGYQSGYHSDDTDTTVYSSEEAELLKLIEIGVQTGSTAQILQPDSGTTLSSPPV

For the compound `Cc1cccc(NC(=O)Nc2ccc(-c3[nH]c4ccccc4c3C(N)=O)cc2)c1` [Compound 1, 2-[4-({[(3-methylphenyl)amino]carbonyl}amino)phenyl]-1H-indole-3-carboxamide], the IC50 in test [1] amounted to 13 nM; in test [2], 140 nM.

Consider `NC(=O)c1c(-c2ccc(NC(=O)Nc3cccc(C(F)(F)F)c3)cc2)[nH]c2ccccc12` [Compound 2, 2-{4-[({[3-(trifluoromethyl)phenyl]amino}carbonyl)amino]phenyl}-1H-indole-3-carboxamide], for which the IC50 is 7 nM in test [1] and 61 nM in test [2].

For the compound `Cc1ccc(F)c(NC(=O)Nc2ccc(-c3[nH]c4ccccc4c3C(N)=O)cc2)c1` [Compound 3, 2-[4-({[(2-fluoro-5-methylphenyl)amino]carbonyl}amino)phenyl]-1H-indole-3-carboxamide], the concentration for half-maximal inhibition (IC50) worked out at 17 nM in test [1] and 267 nM in test [2].

As to `CCc1cccc(NC(=O)Nc2ccc(-c3[nH]c4ccccc4c3C(N)=O)cc2)c1` [Compound 4, 2-[4-({[(3-ethylphenyl)amino]carbonyl}amino)phenyl]-1H-indole-3-carboxamide], the IC50 in test [1] is 7 nM; in test [2], 37 nM.

Consider `Cc1ccoc1C(=O)Nc1ccc(-c2[nH]c3ccccc3c2C(N)=O)cc1` [Compound 5, 2-{4-[(3-methyl-2-furoyl)amino]phenyl}-1H-indole-3-carboxamide], for which, in test [1], the IC50 is more than 10000 nM.

Compound `Cc1ccc(F)c(C(=O)Nc2ccc(-c3[nH]c4ccccc4c3C(N)=O)cc2)c1` [Compound 6, 2-{4-[(2-fluoro-5-methylbenzoyl)amino]phenyl}-1H-indole-3-carboxamide] came in with a half-maximal inhibitory concentration (IC50) in test [1] of more than 10000 nM.

Regarding `Cc1cccc(NC(=O)Nc2cccc(-c3[nH]c4ccccc4c3C(N)=O)c2)c1` [Compound 7, 2-[3-({[(3-methylphenyl)amino]carbonyl}amino)phenyl]-1H-indole-3-carboxamide], the IC50 in test [1] is more than 10000 nM.

Compound `NC(=O)c1c(-c2cccc(NC(=O)Nc3cccc(C(F)(F)F)c3)c2)[nH]c2ccccc12` [Compound 8, 2-{3-[({[3-(trifluoromethyl)phenyl]amino}carbonyl)amino]phenyl}-1H-indole-3-carboxamide] showed an IC50 in test [1] of more than 10000 nM.

With `Cc1ccoc1C(=O)Nc1cccc(-c2[nH]c3ccccc3c2C(N)=O)c1` [Compound 9, 2-{3-[(3-methyl-2-furoyl)amino]phenyl}-1H-indole-3-carboxamide], the IC50 in test [1] and in test [2] was more than 10000 nM each time.

Compound `Cc1ccc(F)c(C(=O)Nc2cccc(-c3[nH]c4ccccc4c3C(N)=O)c2)c1` [Compound 10, 2-{3-[(2-fluoro-5-methylbenzoyl)amino]phenyl}-1H-indole-3-carboxamide] gave an IC50 in test [1] of more than 10000 nM.

(Values after US9403803B2, “Indole-3-carboxamides as kinase inhibitors” (Allergan, Inc., priority 2014, dated 2016).)
